# Experimental data published in ChEMBL document CHEMBL4665860, “Focused structure-activity relationship profiling around the 2-phenylindole scaffold of a cannabinoid type-1 receptor agonist-positive allosteric modulator: site-III aromatic-ring congeners with enhanced activity and solubility” (Bioorg Med Chem, 2020).
# Tests used:
# [1] = target: T1, Cannabinoid receptor 1 (Homo sapiens, UniProt P21554); experiment: Positive allosteric modulatory activity at human CB1 receptor expressed in CHO-K1 cells assessed as increase in CP55940-induced beta-arrestin recruitment preincubated 90 mins followed by CP55940 addition and measured after 60 mins by PathHunter assay relative to CP55940; format: cell-based
# [2] = target: T1, Cannabinoid receptor 1; experiment: Positive allosteric modulatory activity at human CB1 receptor expressed in CHO-K1 cells assessed as increase in CP55940-induced beta-arrestin recruitment […] and measured after 60 mins by PathHunter assay; format: cell-based
# [3] = target: T1, Cannabinoid receptor 1; experiment: Positive allosteric modulatory activity at human CB1 receptor expressed in CHO-K1 cells assessed as increase in CP55940-induced inhibition of forskolin-stimulated cAMP production preincubated for 30 mins followed by CP55940 addition and measured after 60 mins by Hit-hunter assay relative to control; format: functional, cell-based
# [4] = target: T1, Cannabinoid receptor 1; experiment: Positive allosteric modulatory activity at human CB1 receptor expressed in CHO-K1 cells assessed as increase in CP55940-induced inhibition of forskolin-stimulated cAMP production preincubated for 30 mins […] by Hit-hunter assay; format: functional, cell-based
# [5] = physchem; conditions: PBS, pH 7.4
# [6] = filed as positive allosteric modulator
# T1 sequence (P21554 whole entry): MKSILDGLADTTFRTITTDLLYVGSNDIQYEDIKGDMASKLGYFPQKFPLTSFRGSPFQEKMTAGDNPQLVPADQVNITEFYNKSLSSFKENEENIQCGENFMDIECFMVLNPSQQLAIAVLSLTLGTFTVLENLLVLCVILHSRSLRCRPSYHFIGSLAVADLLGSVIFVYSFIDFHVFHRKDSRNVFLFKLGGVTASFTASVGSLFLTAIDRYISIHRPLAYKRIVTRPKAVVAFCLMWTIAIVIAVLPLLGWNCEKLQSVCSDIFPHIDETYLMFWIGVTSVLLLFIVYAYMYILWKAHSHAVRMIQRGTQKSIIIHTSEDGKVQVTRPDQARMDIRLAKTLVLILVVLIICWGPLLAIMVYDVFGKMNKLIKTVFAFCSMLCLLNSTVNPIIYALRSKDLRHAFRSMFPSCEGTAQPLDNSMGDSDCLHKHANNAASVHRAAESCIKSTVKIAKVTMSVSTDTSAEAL
Compound,"Emax [1, 6] [%]",EC50 [2] [nM],Emax [1] [%],"Emax [3, 6] [%]",EC50 [4] [nM],solubility kinetic at 2 h [5] [µM],Emax [3] [%]
O=[N+]([O-])CC(c1ccccc1F)c1c(-c2ccccc2)[nH]c2ccccc12 (configuration not stated),56,782,–,–,–,–,–
O=[N+]([O-])CC(c1ccccc1N1CCCC1)c1c(-c2ccccc2)[nH]c2ccccc12 (configuration not stated),–,> 10000,7.28,75.9,1820,–,–
Cc1ccc2c(C(C[N+](=O)[O-])c3cccs3)c(-c3ccccc3)[nH]c2c1 (configuration not stated),78.2,379,–,–,33,1.56,–
O=[N+]([O-])CC(c1cccc(N2CCCC2)c1)c1c(-c2ccccc2)[nH]c2ccccc12 (configuration not stated),–,> 10000,6.69,110,423,–,–
COc1ccc(C(C[N+](=O)[O-])c2c(-c3ccccc3)[nH]c3ccccc23)cc1 (configuration not stated),–,> 10000,0,119,1180,–,–
O=[N+]([O-])CC(c1ccc(-c2ccccc2)cc1)c1c(-c2ccccc2)[nH]c2ccccc12 (configuration not stated),–,> 10000,5,–,> 10000,–,25.5
O=[N+]([O-])CC(c1ccc2ccccc2c1)c1c(-c2ccccc2)[nH]c2ccccc12 (configuration not stated),–,2340,31.8,113,483,–,–
O=[N+]([O-])CC(Cc1ccccc1)c1c(-c2ccccc2)[nH]c2ccccc12 (configuration not stated),–,> 10000,0,115,420,–,–
Cn1ccnc1C(C[N+](=O)[O-])c1c(-c2ccccc2)[nH]c2ccccc12 (configuration not stated),–,> 10000,0,52.7,533,–,–
O=[N+]([O-])CC(c1c(-c2ccccc2)[nH]c2ccccc12)C1CCCCC1 (configuration not stated),–,1900,26.8,117,495,–,–
COc1cccc(C(C[N+](=O)[O-])c2c(-c3ccccc3)[nH]c3ccccc23)c1 (configuration not stated),–,> 10000,4.96,131,664,–,–
O=[N+]([O-])CC(c1c(Cl)cccc1Cl)c1c(-c2ccccc2)[nH]c2ccccc12 (configuration not stated),–,> 10000,3.72,128,571,–,–
O=[N+]([O-])CC(c1cccc(Cl)c1)c1c(-c2ccccc2)[nH]c2ccccc12 (configuration not stated),–,2980,16,121,859,–,–
O=[N+]([O-])CC(c1ccc(N2CCCCC2)cc1)c1c(-c2ccccc2)[nH]c2ccccc12 (configuration not stated),42.1,2460,–,125,476,–,–
O=[N+]([O-])CC(c1cccc(C(F)(F)F)c1)c1c(-c2ccccc2)[nH]c2ccccc12 (configuration not stated),–,> 10000,0,151,127,–,–
O=[N+]([O-])CC(c1ccc(F)cc1)c1c(-c2ccccc2)[nH]c2ccccc12 (configuration not stated),–,> 10000,–,–,–,–,–
O=[N+]([O-])CC(c1ccc[nH]1)c1c(-c2ccccc2)[nH]c2ccccc12 (configuration not stated),–,> 10000,0.7,77.1,209,–,–
O=[N+]([O-])CC(c1ccccc1)c1c(-c2ccccc2)[nH]c2ccccc12 (configuration not stated),54.1,–,–,99.6,–,–,–
O=[N+]([O-])CC(c1ccc(C(F)(F)F)cc1)c1c(-c2ccccc2)[nH]c2ccccc12 (configuration not stated),–,> 10000,0,65.1,> 10000,–,–
O=[N+]([O-])CC(c1cccc(F)c1)c1c(-c2ccccc2)[nH]c2ccccc12 (configuration not stated),–,> 10000,15.7,118,–,–,–
